Results published in patent EP1561465A2, “Methods of use of fluoroquinolone compounds against bacteria” (LG Life Sciences, Ltd., priority 1999, dated 2001).
Values after ≈ are worked out from the molar mass of the structure shown. Read-outs that look alike come from different tables or passages of the source.

What was measured:
[1] = tested on: Salmonella spp.; test: MIC by agar dilution (NCCLS M7-A4), 288 enteropathogenic isolates, eight quinolones; type: cell-based; settings: for MIC: ciprofloxacin MIC ≥[…], read-out: MIC
[2] = tested on: Hafnia alvei; test: as above; type: cell-based; settings: Hafnia alvei (n = 32)
[3] = tested on: Yersinia enterocolitica; test: as above; type: cell-based; settings: Yersinia enterocolitica (n = 22)
[4] = tested on: Shigella spp.; test: as above; type: cell-based; settings: Shigella spp. (n = 21)
[5] = tested on: Aeromonas spp.; test: as above; type: cell-based; settings: Aeromonas spp. (n = 16)
[6] = tested on: Campylobacter jejuni; test: MIC by agar dilution (NCCLS M7-A4), 5% sheep blood, microaerophilic 48 h; type: cell-based; settings: Campylobacter jejuni (n=91)
[7] = tested on: Salmonella spp.; test: MIC by agar dilution (NCCLS M7-A4), 288 enteropathogenic isolates, gemifloxacin and 15 other antimicrobials; type: cell-based
[8] = tested on: Hafnia alvei; test: as above; type: cell-based; settings: Hafnia alvei N= 32
[9] = tested on: Yersinia enterocolitica; test: as above; type: cell-based; settings: Yersinia enterocolitica N= 22
[10] = tested on: Shigella spp.; test: as above; type: cell-based; settings: Shigella spp. N= 21
Description: [A. hydrophila (12), and A. sobria (4)], and 91 Campylobacter jejuni. […] The strains were stored in skimmed-milk at -80 °C until studied.
The plates were incubated aerobically at 35 °C for 24 h, except for Campylobacter jejuni, where a microaerophilic atmosphere was obtained by using Campy Pack (Becton Dickinson, Cockeysville, MD, USA), and incubation was for 48 h. All organisms were tested with an inoculum of ≅ 10^4 cfu/spot. MICs were defined as the lower antibiotic concentration with no visible growth.

[11] = tested on: Aeromonas spp.; test: as above; type: cell-based; settings: Aeromonas spp. N= 16
[12] = tested on: Campylobacter jejuni; test: as above; settings: Campylobacter jejuni
[13] = tested on: Pseudomonas aeruginosa; test: MIC by agar dilution (NCCLS), 322 nosocomial Gram negative isolates, Athens 1998; type: cell-based; settings: n = 57 isolates
[14] = tested on: Klebsiella pneumoniae; test: as above; type: cell-based; settings: Klebsiella pneumoniae; n = 56 isolates
[15] = tested on: Proteus mirabilis; test: as above; type: cell-based; settings: Proteus mirabilis; n = 57 isolates
[16] = tested on: Enterobacter spp.; test: as above; type: cell-based; settings: Enterobacter, n = 57 isolates
[17] = tested on: Acinetobacter spp.; test: as above; type: cell-based; settings: Acinetobacter; n = 38 strains
[18] = 24 h, read-out: MIC (mg/L) Range

Structure (SMILES): CCn1cc(C(=O)O)c(=O)c2cc(F)c(N3CCNCC3)cc21 [Norfloxacin, norfloxacin]
- MIC ([1]; S. hadar (n = 2)): 4 µg/mL (≈ 12.5 µM)
- MIC ([1]; S. newport (n = 1)): 2 µg/mL (≈ 6.26 µM)
- MIC ([1]; S. virchow (n = 2)): 0.5 µg/mL (≈ 1.57 µM)
- % Susceptible ([1]; Salmonella spp. (n = 106)): 100%
- MIC50 ([1]; Salmonella spp. (n = 106)): 0.06 µg/mL (≈ 0.188 µM)
- MIC90 ([1]; Salmonella spp. (n = 106)): 0.5 µg/mL (≈ 1.57 µM)
- MIC Range ([1]; Salmonella spp. (n = 106)): 0.06 to 4 µg/mL
- MIC ([1]; Salmonella, S. tshiongwe (n = 1)): 4 µg/mL (≈ 12.5 µM)
- % Susceptible [2]: 100%
- MIC50 [2]: 0.03 µg/mL (≈ 0.0939 µM)
- MIC90 [2]: 0.03 µg/mL (≈ 0.0939 µM)
- MIC Range [2]: ≤0.015 to 0.03 µg/mL
- % Susceptible [3]: 100%
- MIC50 [3]: 0.06 µg/mL (≈ 0.188 µM)
- MIC90 [3]: 0.06 µg/mL (≈ 0.188 µM)
- MIC Range [3]: 0.06 to 0.5 µg/mL
- % Susceptible [4]: 100%
- MIC50 [4]: 0.06 µg/mL (≈ 0.188 µM)
- MIC90 [4]: 0.06 µg/mL (≈ 0.188 µM)
- MIC Range [4]: 0.03 to 0.06 µg/mL
- % Susceptible [5]: 100%
- MIC50 [5]: ≤ 0.015 µg/mL
- MIC90 [5]: 0.03 µg/mL (≈ 0.0939 µM)
- MIC Range [5]: ≤0.015 to 0.12 µg/mL
- % Susceptible [6]: 31.86%
- MIC50 [6]: 128 µg/mL (≈ 401 µM)
- MIC90 [6]: > 128 µg/mL
- MIC ([7]; S. hadar(2), isolates with MICs for ciprofloxacin ≥[…], read-out: MIC): 4 mg/L (≈ 12.5 µM)
- MIC ([7]; S. newport(1), isolate with MIC for ciprofloxacin ≥[…], read-out: MIC): 2 mg/L (≈ 6.26 µM)
- MIC ([7]; S. virchow(2), isolates with MICs for ciprofloxacin ≥[…], read-out: MIC): 0.5 mg/L (≈ 1.57 µM)
- MIC (mg/L) Range ([7]; Salmonella spp. N= 106): 0.06 to 4 mg/L
- MIC ([7]; Salmonella, S. tshiongwe(1), isolate with MIC for ciprofloxacin ≥[…], read-out: MIC): 4 mg/L (≈ 12.5 µM)
- MIC ([7]; Salmonella, read-out: MIC (mg/L) 50%, Salmonella spp. N= 106): 0.06 mg/L (≈ 0.188 µM)
- MIC ([7]; Salmonella, read-out: MIC (mg/L) 90%, Salmonella spp. N= 106): 0.5 mg/L (≈ 1.57 µM)
- MIC [8, 18]: 0.015 to 0.03 mg/L (≈ 0.047 to 0.0939 µM)
- MIC ([8]; read-out: MIC (mg/L) 50%): 0.03 mg/L (≈ 0.0939 µM)
- MIC ([8]; read-out: MIC (mg/L) 90%): 0.03 mg/L (≈ 0.0939 µM)
- MIC [9, 18]: 0.06 to 0.5 mg/L (≈ 0.188 to 1.57 µM)
- MIC ([9]; read-out: MIC (mg/L) 50%): 0.06 mg/L (≈ 0.188 µM)
- MIC ([9]; read-out: MIC (mg/L) 90%): 0.06 mg/L (≈ 0.188 µM)
- MIC [10, 18]: 0.03 to 0.06 mg/L (≈ 0.0939 to 0.188 µM)
- MIC ([10]; read-out: MIC (mg/L) 50%): 0.06 mg/L (≈ 0.188 µM)
- MIC ([10]; read-out: MIC (mg/L) 90%): 0.06 mg/L (≈ 0.188 µM)
- MIC (mg/L) Range [11]: ≤0.015 to 0.12 mg/L
- MIC ([11]; read-out: MIC (mg/L) 50%): ≤ 0.015 mg/L
- MIC ([11]; read-out: MIC (mg/L) 90%): 0.03 mg/L (≈ 0.0939 µM)
- MIC ([12]; read-out: MIC (mg/L) 50%): 128 mg/L (≈ 401 µM)
- MIC ([12]; read-out: MIC (mg/L) 90%): > 128 mg/L

Structure (SMILES): CO/N=C(\C(=O)N[C@@H]1C(=O)N2C(C(=O)[O-])=C(C[N+]3(C)CCCC3)CS[C@H]12)c1csc(N)n1 [Cefepime]
- MIC50 [13]: 8 µg/mL (≈ 16.6 µM)
- MIC90 [13]: > 64 µg/mL
- MIC50 [14]: 0.06 µg/mL (≈ 0.125 µM)
- MIC90 [14]: 8 µg/mL (≈ 16.6 µM)
- MIC50 [15]: 0.125 µg/mL (≈ 0.26 µM)
- MIC90 [15]: 8 µg/mL (≈ 16.6 µM)
- MIC50 ([16]; read-out: MIC50): 0.125 µg/mL (≈ 0.26 µM)
- MIC90 ([16]; read-out: MIC90): 16 µg/mL (≈ 33.3 µM)
- MIC50 [17]: 16 µg/mL (≈ 33.3 µM)
- MIC90 [17]: 64 µg/mL (≈ 133 µM)
